Tests used:
[1] = molecular target: T1, hCRTH2 receptor (Homo sapiens (Human), UniProt Q9Y5Y4); assay: hCRTH2 receptor membranes radioligand displacement assay (3H-PGD2); details: 3H-PGD2 2.5 nM, HEK293-hCRTH2 membranes, Binding-Buffer with 0.1% BSA
Procedure: Biological Assays: Preparation of hCRTH2 Receptor Membranes and Radioligand Displacement Assay:
(§1) First, recombinant HEK293-hCRTH2 cells were detached from culture plates into 5 ml buffer A/plate (Buffer A: 5 mM Tris, 1 mM MgCl2-6H2O pH=7.4) using a rubber policeman. Cells were then transferred into centrifugation tubes and centrifuged for 5 min at 400 g. The cell pellet was resuspended in the same buffer and tubes were frozen at −80° C. Cells were thawed and membrane fragments were generated by homogenization using a polytron homogenizer (30 seconds). The membrane fragments were then centrifuged at 3000 g for 20 minutes and resuspended in buffer C (Buffer C: 75 mM Tris, 25 mM MgCl2, 250 mM Saccharose pH 7.4). Aliquots of membrane fragements were stored at −20° C.
(§2) Binding assay was performed in a final assay volume of 250 μl. First, 25 μl of test compound, previously diluted in Binding-Buffer (Binding-Buffer: 50 mM Tris-Base, 100 mM NaCl, 1 mM EDTA, 0.1% BSA (protease free), 0.01% NaN3, 10 mM MnCl2 pH 7.0) was placed into each well. After addition of 75 μl Binding-Buffer, 50 μl of the radioligand ^3H-PGD2 (at 2.5 nM (220.000 dpm/well) from ANAWA ART0662) was added to each well. Binding assay was started by addition of 100 μl CRTH2 membrane fragments, reaching a final concentration of 20 μg/well. For non-specific binding, PGD2 was added to the reaction mixture to […] final concentration. This assay mix was incubated for 90 minutes at room temperature and then filtered through a GF/C filter 96-well plate which was pre-soaked for 3 hours in 0.5% polyethyleneimine (PEI). The filter-wells were washed three times with ice cold Binding-Buffer. Then, 40 μl of Microscint-40 (Packard) was added to each well and the retained radioactivity quantified in a Topcount (Packard).

[2] = molecular target: T1, hCRTH2 receptor; assay: Radioligand displacement assay in presence of human serum albumin (HSA); details: 3H-PGD2 2.5 nM, Binding-Buffer with 0.5% HSA instead of 0.1% BSA
Procedure: as §1, §2
Radioligand Displacement Assay-Human Serum Albumin (HSA):
Radioligand displacement assay in presence of human serum albumin (HSA) was performed as described above, with following modifications. Binding-Buffer-HSA: Binding-buffer+0.5% Sigma Albumin from Human serum A1887 (instead of 0.1% BSA). A volume of 25 μl test compound, previously diluted in Binding-Buffer-HSA was placed into each well. After addition of 75 μl Binding-Buffer-HSA, 50 μl of ^3H-PGD2 (at 2.5 nM (220.000 dpm/well) from ANAWA ART0662) was added to each well. Remaining protocol was identical as described above.

T1 sequence (Q9Y5Y4 whole entry): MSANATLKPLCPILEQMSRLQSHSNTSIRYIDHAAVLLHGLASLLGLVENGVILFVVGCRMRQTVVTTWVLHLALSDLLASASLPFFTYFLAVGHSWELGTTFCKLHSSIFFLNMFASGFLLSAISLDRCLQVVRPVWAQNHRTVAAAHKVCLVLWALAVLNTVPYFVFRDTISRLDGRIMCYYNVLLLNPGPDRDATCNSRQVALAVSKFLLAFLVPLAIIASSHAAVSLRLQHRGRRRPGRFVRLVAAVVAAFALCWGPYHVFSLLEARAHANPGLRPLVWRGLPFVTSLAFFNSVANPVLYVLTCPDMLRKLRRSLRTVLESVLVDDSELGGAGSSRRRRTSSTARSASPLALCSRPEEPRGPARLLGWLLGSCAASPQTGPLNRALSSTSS

In the case of `O=C(O)Cn1c2c(c3cc(F)ccc31)C[C@H](Nc1ncc(F)cn1)CC2` [Example 2, (3R)-2-(6-fluoro-3-((5-fluoropyrimidin-2-yl)amino)-3,4-dihydro-1H-carbazol-9-(2H)-yl)acetic acid], the IC50 [1] is reported as 27 nM.

In the case of `O=C(O)Cn1c2c(c3cc(F)ccc31)C[C@H](Nc1ncc(C(F)(F)F)cn1)CC2` [Example 5, (3R)-2-(6-fluoro-3-((5-(trifluoromethyl)pyrimidin-2-yl)amino)-3,4-dihydro-1H-carbazol-9-(2H)-yl)acetic acid], the IC50 [1] is reported as 27 nM.

With `O=C(O)Cn1c2c(c3cc(F)ccc31)C[C@H](Nc1nccc(C(F)(F)F)n1)CC2` [Example 6, (3R)-2-(6-fluoro-3-((4-(trifluoromethyl)pyrimidin-2-yl)amino)-3,4-dihydro-1H-carbazol-9-(2H)-yl)acetic acid] the IC50 [1] was 46 nM.

Compound `CN(c1ncc(F)cn1)[C@@H]1CCc2c(c3cc(F)ccc3n2CC(=O)O)C1` [Example 8, (3R)-2-(6-fluoro-3-((5-fluoropyrimidin-2-yl)(methyl)amino)-3,4-dihydro-1H-carbazol-9(2H)-yl)acetic acid] has an IC50 [1] of 42 nM.

Compound `CN(c1ncc(Cl)cn1)[C@@H]1CCc2c(c3cc(F)ccc3n2CC(=O)O)C1` [Example 10, (3R)-2-(3-((5-chloropyrimidin-2-yl)(methyl)amino)-6-fluoro-3,4-dihydro-1H-carbazol-9(2H)-yl)acetic acid] has an IC50 [1] of 58 nM.

With `CN(c1ncc(C(F)(F)F)cn1)[C@@H]1CCc2c(c3cc(F)ccc3n2CC(=O)O)C1` [Example 12, (3R)-2-(6-fluoro-3-(methyl(5-(trifluoromethyl)pyrimidin-2-yl)amino)-3,4-dihydro-1H-carbazol-9(2H)-yl)acetic acid] the IC50 [1] was 141 nM.

For `CN(c1nccc(C(F)(F)F)n1)[C@H]1CCc2c(c3cc(F)ccc3n2CC(=O)O)C1` [Example 13, (3S)-2-(6-fluoro-3-(methyl(4-(trifluoromethyl)pyrimidin-2-yl)amino)-3,4-dihydro-1H-carbazol-9(2H)-yl)acetic acid], the IC50 [1] was 12 nM and the IC50 [2] was 769 nM.

Compound `CN(c1nccc(C(F)(F)F)n1)[C@@H]1CCc2c(c3cc(F)ccc3n2CC(=O)O)C1` [Example 14, (3R)-2-(6-fluoro-3-(methyl(4-(trifluoromethyl)pyrimidin-2-yl)amino)-3,4-dihydro-1H-carbazol-9(2H)-yl)acetic acid] has an IC50 [1] of 67 nM.

In the case of `Cc1cc(C)nc(N(C)[C@H]2CCc3c(c4cc(F)ccc4n3CC(=O)O)C2)n1` [Example 16, (3S)-2-(3-((4,6-dimethylpyrimidin-2-yl)(methyl)amino)-6-fluoro-3,4-dihydro-1H-carbazol-9(2H)-yl)acetic acid], the IC50 [1] is reported as 125 nM.

`Cc1ccnc(N(C)[C@H]2CCc3c(c4cc(F)ccc4n3CC(=O)O)C2)n1` [Example 17, (3S)-2-(6-fluoro-3-(methyl(4-methylpyrimidin-2-yl)amino)-3,4-dihydro-1H-carbazol-9(2H)-yl)acetic acid] was tested, and the IC50 [1] was 107 nM.

`CN(c1nc2ccccc2s1)[C@H]1CCc2c(c3cc(F)ccc3n2CC(=O)O)C1` [Example 20, (3S)-2-(3-(benzo[d]thiazol-2-yl(methyl)amino)-6-fluoro-3,4-dihydro-1H-carbazol-9(2H)-yl)acetic acid] showed an IC50 [1] of 8.1 nM and an IC50 [2] of 40 nM.

In the case of `CN(c1ncnc2ccccc12)[C@H]1CCc2c(c3cc(F)ccc3n2CC(=O)O)C1` [Example 21, (3S)-2-(6-fluoro-3-(methyl(quinazolin-4-yl)amino)-3,4-dihydro-1H-carbazol-9(2H)-yl)acetic acid], the IC50 [1] is reported as 26 nM.

`CN(c1nc(C(F)(F)F)nc2ccccc12)[C@H]1CCc2c(c3cc(F)ccc3n2CC(=O)O)C1` [Example 22, (3S)-2-(6-fluoro-3-(methyl(2-(trifluoromethyl)quinazolin-4-yl)amino)-3,4-dihydro-1H-carbazol-9(2H)-yl)acetic acid] showed an IC50 [1] of 16 nM and an IC50 [2] of 380 nM.

Compound `Cc1nc(N(C)[C@H]2CCc3c(c4cc(F)ccc4n3CC(=O)O)C2)c2ccccc2n1` [Example 23, (3S)-2-(6-fluoro-3-(methyl(2-methylquinazolin-4-yl)amino)-3,4-dihydro-1H-carbazol-9(2H)-yl)acetic acid] has an IC50 [1] of 55 nM.

Compound `CC(C)N(c1ncc(Cl)cn1)[C@H]1CCc2c(c3cc(F)ccc3n2CC(=O)O)C1` [Example 26, (3S)-2-(3-((5-chloropyrimidin-2-yl)(isopropyl)amino)-6-fluoro-3,4-dihydro-1H-carbazol-9(2H)-yl)acetic acid] has an IC50 [1] of 809 nM.

Compound `CN(c1ncc(-c2ccccc2)cn1)[C@H]1CCc2c(c3cc(F)ccc3n2CC(=O)O)C1` [Example 30, (3S)-2-(6-fluoro-3-(methyl(5-phenylpyrimidin-2-yl)amino)-3,4-dihydro-1H-carbazol-9(2H)-yl)acetic acid] has an IC50 [1] of 11 nM and an IC50 [2] of 41 nM.

In the case of `COc1cnc(N(C)[C@H]2CCc3c(c4cc(F)ccc4n3CC(=O)O)C2)nc1` [Example 31, (3S)-2-(6-fluoro-3-((5-methoxypyrimidin-2-yl)(methyl)amino)-3,4-dihydro-1H-carbazol-9(2H)-yl)acetic acid], the IC50 [1] is reported as 7.2 nM and the IC50 [2] is reported as 43 nM.

Compound `CN(c1ccc(C(F)(F)F)cn1)[C@H]1CCc2c(c3cc(F)ccc3n2CC(=O)O)C1` [Example 35, (3S)-2-(6-fluoro-3-(methyl(5-(trifluoromethyl)pyridin-2-yl)amino)-3,4-dihydro-1H-carbazol-9(2H)-yl)acetic acid] has an IC50 [1] of 9.1 nM and an IC50 [2] of 20 nM.

With `CN(c1ccc(F)cn1)[C@H]1CCc2c(c3cc(F)ccc3n2CC(=O)O)C1` [Example 36, (3S)-2-(6-fluoro-3-((5-fluoropyridin-2-yl)(methyl)amino)-3,4-dihydro-1H-carbazol-9(2H)-yl)acetic acid] the IC50 [1] was 9.8 nM and the IC50 [2] was 8 nM.

`CN(c1ccc(Cl)cn1)[C@H]1CCc2c(c3cc(F)ccc3n2CC(=O)O)C1` [Example 37, (3S)-2-(3-((5-chloropyridin-2-yl)(methyl)amino)-6-fluoro-3,4-dihydro-1H-carbazol-9(2H)-yl)acetic acid] gave an IC50 [1] of 5.2 nM and an IC50 [2] of 13 nM.

In the case of `O=C(O)Cn1c2c(c3cc(F)ccc31)C[C@@H](N(CC(F)F)c1ncc(Cl)cn1)CC2` [Example 41, (3S)-2-(3-((5-chloropyrimidin-2-yl)(2,2-difluoroethyl)amino)-6-fluoro-3,4-dihydro-1H-carbazol-9(2H)-yl)acetic acid], the IC50 [1] is reported as 15 nM and the IC50 [2] is reported as 68 nM.

Work on `CN(c1cnc2ccccc2n1)[C@H]1CCc2c(c3cc(F)ccc3n2CC(=O)O)C1` [Example 44, (3S)-2-(6-fluoro-3-(methyl(quinoxalin-2-yl)amino)-3,4-dihydro-1H-carbazol-9(2H)-yl)acetic acid] yielded an IC50 [1] of 11 nM and an IC50 [2] of 176 nM.

For `CN(c1nc(C(C)(C)C)cs1)C1CCc2c(c3cc(F)ccc3n2CC(=O)O)C1` (stereo not shown) [Example 46, 2-(3-((4-(tert-butyl)thiazol-2-yl)(methyl)amino)-6-fluoro-3,4-dihydro-1H-carbazol-9(2H)-yl)acetic acid], the IC50 [1] was 73 nM.

`CN(c1nc(C(F)(F)F)cs1)C1CCc2c(c3cc(F)ccc3n2CC(=O)O)C1` (stereo not shown) [Example 47, 2-(6-fluoro-3-(methyl(4-(trifluoromethyl)thiazol-2-yl)amino)-3,4-dihydro-1H-carbazol-9(2H)-yl)acetic acid] showed an IC50 [1] of 14 nM and an IC50 [2] of 402 nM.

`CN(c1cc(C(C)(C)C)on1)C1CCc2c(c3cc(F)ccc3n2CC(=O)O)C1` (stereo not shown) [Example 48, 2-(3-((5-(tert-butyl)isoxazol-3-yl)(methyl)amino)-6-fluoro-3,4-dihydro-1H-carbazol-9(2H)-yl)acetic acid] showed an IC50 [1] of 72 nM.

Compound `CN(c1ccn(C)n1)C1CCc2c(c3cc(F)ccc3n2CC(=O)O)C1` (stereo not shown) [Example 49, 2-(6-fluoro-3-(methyl(1-methyl-1H-pyrazol-3-yl)amino)-3,4-dihydro-1H-carbazol-9(2H)-yl)acetic acid] has an IC50 [1] of 37 nM.

In the case of `Cc1nnc(N(C)C2CCc3c(c4cc(F)ccc4n3CC(=O)O)C2)s1` (stereo not shown) [Example 50, 2-(6-fluoro-3-(methyl(5-methyl-1,3,4-thiadiazol-2-yl)amino)-3,4-dihydro-1H-carbazol-9(2H)-yl)acetic acid], the IC50 [1] is reported as 127 nM.

`CN(c1ccon1)C1CCc2c(c3cc(F)ccc3n2CC(=O)O)C1` (stereo not shown) [Example 51, 2-(6-fluoro-3-(isoxazol-3-yl(methyl)amino)-3,4-dihydro-1H-carbazol-9(2H)-yl)acetic acid] was tested, and the IC50 [1] was 6.4 nM and the IC50 [2] was 53 nM.
